Results published in US20240216369A1, “THE USE OF A SPLICING MODULATOR FOR A TREATMENT SLOWING PROGRESSION OF HUNTINGTON'S DISEASE” (Novartis AG, priority 2019, published 2024).

Tests used:
mHTT = assay: Mutant and total HTT multiplex HTRF assay in Q48 HTT human embryonic stem cell line: mHTT; assay type: cell-based; settings: Q48 HTT hESC, 48 hours
Experimental: (§1) The multiplex assay is performed in human embryonic stem cells (hESCs) which have been derived by Genea Biocells from human blastocysts of HD donors. Cells are plated at a density of 10,000 cells/well into 384-well collagen coated plates and left to adhere for 24 hours, compounds 1 to 82 are then added to cells and incubated for 48 hours (37° C., 5% CO2), cells are then lysed and the contents split into a black 384-well plate.
(§2) The black plates have a combination of HTRF labeled monoclonal antibodies added which recognize discrete areas of the HTT protein, the 2B7-Tb “donor” antibody (0.2 ng/well) recognizes a sequence at the N-terminus of the protein, an MW1-Alexa488 “acceptor 1” antibody (30 ng/well) recognizes an area in the polyQ region, whereas a MAB2166-d2 “acceptor 2” antibody (6 ng/well) recognizes a sequence beyond the polyQ region. The 2B7 antibody was obtained from Coriell (CH02024), the MW1 antibody from Millipore (MABN2427), and the MAB2166 antibody from Millipore (1HU-4C8).
(§3) These detection reagents are incubated with the cell lysate at room temperature for 4-6 hours before having their fluorescence quantified at 615 nm (donor) and 535 nm and 665 nm (acceptor 1 and 2 respectively). The donor/acceptor ratio between these signals indicates the relative quantities of mHTT and tHTT proteins. As shown in the Table 1, compounds 1 to 82 as described therein and in Table 2, had the following pIC50 values.

tHTT = assay: Mutant and total HTT multiplex HTRF assay in Q48 HTT human embryonic stem cell line: tHTT; assay type: cell-based; settings: Q48 HTT hESC, 48 hours
Experimental: as §1, §2, §3

Structure (SMILES) | Rating (based on mHTT potency) (mHTT) | mHTT pIC50 (mHTT) | tHTT pIC50 (tHTT)
CN(c1ccc(-c2ccc(-c3cn[nH]c3)cc2O)nn1)C1CC(C)(C)NC(C)(C)C1 [Compound 1, 2-(6-(methyl(2,2,6,6-tetramethylpiperidin-4-yl)amino)pyridazin-3-yl)-5-(1H-pyrazol-4-yl)phenol] | ***** (a pIC50 value above 7.5 is indicated by five stars (*****)) | 7.75 | 7.8065
CN(c1ccc(-c2cc3c(=O)n(C)ccc3cc2O)nn1)C1CC(C)(C)NC(C)(C)C1 [Compound 2, 6-hydroxy-2-methyl-7-(6-(methyl(2,2,6,6-tetramethylpiperidin-4-yl)amino)pyridazin-3-yl)isoquinolin-1(2H)-one] | ***** (a pIC50 value above 7.5 is indicated by five stars (*****)) | 7.73 | 7.6555
CN(c1ccc(-c2ccc(-c3cn[nH]c3)cc2O)nn1)[C@H]1C[C@]2(C)CC[C@](C)(C1)N2 [Compound 3, 2-(6-(((1R,5S)-1,5-dimethyl-8-azabicyclo[3.2.1]octan-3-yl)(methyl)amino)pyridazin-3-yl)-5-(1H-pyrazol-4-yl)phenol] | ***** (a pIC50 value above 7.5 is indicated by five stars (*****)) | 7.717 | 7.609
CN(c1ccc(-c2ccc(-n3ccc(N)n3)cc2O)nn1)C1CC(C)(C)NC(C)(C)C1 [Compound 4, 5-(3-amino-1H-pyrazol-1-yl)-2-(6-(methyl(2,2,6,6-tetramethylpiperidin-4-yl)amino)pyridazin-3-yl)phenol] | ***** (a pIC50 value above 7.5 is indicated by five stars (*****)) | 7.6 | 7.5845
CN(c1ccc(-c2ccc(-c3ccn(C)c(=O)c3)cc2O)nn1)C1CC(C)(C)NC(C)(C)C1 [Compound 5, 4-(3-hydroxy-4-(6-(methyl(2,2,6,6-tetramethylpiperidin-4-yl)amino)pyridazin-3-yl)phenyl)-1-methylpyridin-2(1H)-one] | ***** (a pIC50 value above 7.5 is indicated by five stars (*****)) | 7.591 | 7.5935
CN(c1nnc(-c2ccc(-c3ccc(=O)n(C)c3)cc2O)s1)C1CC(C)(C)NC(C)(C)C1 [Compound 6, 5-(3-hydroxy-4-(5-(methyl(2,2,6,6-tetramethylpiperidin-4-yl)amino)-1,3,4-thiadiazol-2-yl)phenyl)-1-methylpyridin-2(1H)-one] | ***** (a pIC50 value above 7.5 is indicated by five stars (*****)) | 7.585 | 7.493
CC1(C)CC(Oc2ccc(-c3c(O)cc(-c4cn[nH]c4)cc3F)nn2)CC(C)(C)N1 [Compound 7, 3-fluoro-5-(1H-pyrazol-4-yl)-2-(6-((2,2,6,6-tetramethylpiperidin-4-yl)oxy)pyridazin-3-yl)phenol] | ***** (a pIC50 value above 7.5 is indicated by five stars (*****)) | 7.5265 | 7.51
CN(c1ccc(-c2ccc(-c3ccnc(O)c3)cc2O)nn1)C1CC(C)(C)NC(C)(C)C1 [Compound 8, 4-(3-hydroxy-4-(6-(methyl(2,2,6,6-tetramethylpiperidin-4-yl)amino)pyridazin-3-yl)phenyl)pyridin-2-ol] | **** (a pIC50 value between 7.0 and 7.5 is indicated by four stars (****)) | 7.4855 | 7.4435
CN(c1nnc(-c2c(O)cc(-c3cn[nH]c3)cc2Cl)s1)C1CC(C)(C)NC(C)(C)C1 [Compound 9, 3-chloro-2-(5-(methyl(2,2,6,6-tetramethylpiperidin-4-yl)amino)-1,3,4-thiadiazol-2-yl)-5-(1H-pyrazol-4-yl)phenol] | **** (a pIC50 value between 7.0 and 7.5 is indicated by four stars (****)) | 7.4435 | 7.353
Cc1cc2cc(-c3ccc(N(C)C4CC(C)(C)NC(C)(C)C4)nn3)c(O)cc2c(C#N)n1 [Compound 10, 7-hydroxy-3-methyl-6-(6-(methyl(2,2,6,6-tetramethylpiperidin-4-yl)amino)pyridazin-3-yl)isoquinoline-1-carbonitrile] | **** (a pIC50 value between 7.0 and 7.5 is indicated by four stars (****)) | 7.4395 | 7.3875
Cc1cc2cc(O)c(-c3ccc(N(C)C4CC(C)(C)NC(C)(C)C4)nn3)cc2c(C)n1 [Compound 11, 1,3-dimethyl-7-(6-(methyl(2,2,6,6-tetramethylpiperidin-4-yl)amino)pyridazin-3-yl)isoquinolin-6-ol] | **** (a pIC50 value between 7.0 and 7.5 is indicated by four stars (****)) | 7.3875 | 7.3965
CC1(C)CC(Nc2ccc(-c3ccc(-n4cccn4)cc3O)nn2)CC(C)(C)N1 [Compound 12, 5-(1H-pyrazol-1-yl)-2-(6-((2,2,6,6-tetramethylpiperidin-4-yl)amino)pyridazin-3-yl)phenol] | **** (a pIC50 value between 7.0 and 7.5 is indicated by four stars (****)) | 7.379 | 7.2825
CN(c1nnc(-c2ccc(-c3cn[nH]c3)cc2O)s1)C1CC(C)(C)NC(C)(C)C1 [Compound 13, 2-(5-(methyl(2,2,6,6-tetramethylpiperidin-4-yl)amino)-1,3,4-thiadiazol-2-yl)-5-(1H-pyrazol-4-yl)phenol] | **** (a pIC50 value between 7.0 and 7.5 is indicated by four stars (****)) | 7.3545 | 7.383
CN(c1ccc(-c2cc(Cl)c(-c3cn[nH]c3)cc2O)nn1)C1CC(C)(C)NC(C)(C)C1 [Compound 14, 4-chloro-2-(6-(methyl(2,2,6,6-tetramethylpiperidin-4-yl)amino)pyridazin-3-yl)-5-(1H-pyrazol-4-yl)phenol] | **** (a pIC50 value between 7.0 and 7.5 is indicated by four stars (****)) | 7.35 | 7.389
Cc1ccc2cc(O)c(-c3ccc(N(C)C4CC(C)(C)NC(C)(C)C4)nn3)cc2n1 [Compound 15, 2-methyl-7-(6-(methyl(2,2,6,6-tetramethylpiperidin-4-yl)amino)pyridazin-3-yl)quinolin-6-ol] | **** (a pIC50 value between 7.0 and 7.5 is indicated by four stars (****)) | 7.349 | 7.283
CN(c1nnc(-c2ccc(-c3cnn(C)c3)cc2O)s1)C1CC(C)(C)NC(C)(C)C1 [Compound 16, 2-(5-(methyl(2,2,6,6-tetramethylpiperidin-4-yl)amino)-1,3,4-thiadiazol-2-yl)-5-(1-methyl-1H-pyrazol-4-yl)phenol] | **** (a pIC50 value between 7.0 and 7.5 is indicated by four stars (****)) | 7.3285 | 7.481
Cc1cnc2cc(-c3ccc(N(C)C4CC(C)(C)NC(C)(C)C4)nn3)c(O)cc2c1 [Compound 17, 3-methyl-7-(6-(methyl(2,2,6,6-tetramethylpiperidin-4-yl)amino)pyridazin-3-yl)quinolin-6-ol] | **** (a pIC50 value between 7.0 and 7.5 is indicated by four stars (****)) | 7.2895 | 7.424
CN(c1ccc(-c2ccc(-n3cccn3)cc2O)nn1)C1CC(C)(C)NC(C)(C)C1 [Compound 19, 2-(6-(methyl(2,2,6,6-tetramethylpiperidin-4-yl)amino)pyridazin-3-yl)-5-(1H-pyrazol-1-yl)phenol] | **** (a pIC50 value between 7.0 and 7.5 is indicated by four stars (****)) | 7.2235 | 7.178
COc1cc(-c2cnn(C)c2)cc(O)c1-c1ccc(N(C)C2CC(C)(C)NC(C)(C)C2)nn1 [Compound 20, 3-methoxy-2-(6-(methyl(2,2,6,6-tetramethylpiperidin-4-yl)amino)pyridazin-3-yl)-5-(1-methyl-1H-pyrazol-4-yl)phenol] | **** (a pIC50 value between 7.0 and 7.5 is indicated by four stars (****)) | 7.22 | 7.106
CN(c1ccc(-c2cc3ccc(C(N)=O)nc3cc2O)nn1)C1CC(C)(C)NC(C)(C)C1 [Compound 21, 7-hydroxy-6-(6-(methyl(2,2,6,6-tetramethylpiperidin-4-yl)amino)pyridazin-3-yl)quinoline-2-carboxamide] | **** (a pIC50 value between 7.0 and 7.5 is indicated by four stars (****)) | 7.203 | 7.221
CN(c1nnc(-c2cc(F)c(-c3cn[nH]c3)cc2Cl)s1)C1CC(C)(C)NC(C)(C)C1 [Compound 22, 5-(2-chloro-5-fluoro-4-(1H-pyrazol-4-yl)phenyl)-N-methyl-N-(2,2,6,6-tetramethylpiperidin-4-yl)-1,3,4-thiadiazol-2-amine] | **** (a pIC50 value between 7.0 and 7.5 is indicated by four stars (****)) | 7.1945 | 7.1125
